Measurements published in publication PMC2576352, “The V1-V3 region of a brain-derived HIV-1 envelope glycoprotein determines macrophage tropism, low CD4 dependence, increased fusogenicity and altered sensitivity to entry inhibitors” (Retrovirology, 2008).

T1: N40, biotinylated HR1-derived peptide (HIV-1, biotin on the amino terminus)
T1 construct: peptide derived from the heptad repeat 1 (HR1) region of HIV-1 gp41; Held on a streptavidin SA chip by its biotin; also called HR1-based peptide; source: synthetic peptide, custom synthesized
T1 peptide: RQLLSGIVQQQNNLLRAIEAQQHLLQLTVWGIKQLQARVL


Tests used:
[1] = test system: brain-derived Env versus spleen-derived Env; conditions: cited from earlier work
Description: We and others have investigated whether viruses or Env with these particular phenotypes are present among primary isolates in the brain/CNS of HIV-1-infected individuals. In this sense, Peters et al. have reported that the macrophage tropism of brain-derived Env seems to correlate with reduced sensitivity to inhibition by an anti-CD4 mAb but not by CCR5 antagonists or gp41-targeting antibodies or fusion inhibitor peptides. […] We hypothesized that the brain gp120 would contain the determinants for low CD4 dependence and higher avidity for CD4, while gp41 could likely play a role in the increased fusogenicity and reduced sensitivity to fusion inhibitors. In the present study, we have used chimeric and ...

[2] = test system: pseudotypes containing wild-type, chimeric and mutant Env; experiment: Inhibition of pseudotype infection by entry/fusion inhibitors, Env panel; assay type: cell-based, HIV-1; conditions: all pseudotypes; data not shown
Protocol: To produce Env-pseudotyped, luciferase-reporter viruses, 293T cells were co-transfected using calcium phosphate precipitation (ProFection Mammalian Transfection System, Promega, Madison, WI) with each Env expression vector and with the Env-deficient, pNL4-3-luc^+env^- provirus, developed by N. Landau by introducing a frameshift mutation in the env gene of pNL4-3-luc^+ [87]. Culture supernatants containing the pseudotyped particles were collected 48–72 hours after transfection, clarified by centrifugation, aliquoted and stored at -80°C until use. Pseudotype particles lacking envelope glycoproteins, which are generated by co-transfecting the luciferase HIV-1 pro-viral backbone with an empty expression vector, are used as negative control for all pseudotype infections. Pseudotype stocks were quantitated using a p24^gag antigen capture ELISA (SAIC-National Cancer Institute) and normalized amounts of stocks were used to infect target cells for 5–6 hours at 37°C. At 2–3 days post-infection, the cells were washed with PBS and lysed, and the amount of entry mediated by each Env was measured by detecting luciferase activity (Luciferase Assay System, Promega) in a microplate luminometer (GloMax, Promega), following manufacturer's instructions. Results are obtained as relative light units (RLU) per second. […]
Inhibition curves obtained by plotting the relative infection (expressed as a percent of untreated) versus the concentration of the inhibitor were analyzed by non-linear regression with a sigmoidal dose-response model (variable slopes) using GraphPad Prism software, version 4.02 (GraphPad Software, San Diego, CA); this analysis uses a four parameter logistic equation, Y = Bottom + (Top-Bottom)/( 1+10^((log10IC50−X)⋅Slope) ) where Y is the response, Bottom is 0 and Top is 100, X is the logarithm of the concentration, and Slope is the slope of the curve. […] Fusogenicity data were analyzed by non-linear regression with a one-phase exponential model (using GraphPad Prism) that uses the equation Y=Ymax(1-e^(-kX)), where Ymax is the maximum response and k is the observed rate. […]

[3] = biological target: T1, N40, biotinylated HR1-derived peptide; experiment: SPR; Biacore 3000; biotinylated N40 held on a streptavidin SA chip, N40scr surface as reference; T-1249 and T-1249-BR at 81–650 nM passed over at 25 µl/min, 25°C; 25 mM Tris-HCl, 150 mM NaCl, pH 7.4, 8% DMSO; conditions: both partners purified

| Molecule | binding result [3] | also measured |
| --- | --- | --- |
| Cc1ccc(-c2ccc3c(c2)C=C(C(=O)Nc2ccc(C[N+](C)(C)C4CCOCC4)cc2)CCC3)cc1.[Cl-] [TAK-779] | – | sensitivity of brain-derived Env to CCR5 inhibitor [1]: absence of differences in sensitivity |
| YTNLIYNLIEKSQNQQEMNEQELLKLDTWASLWNWF [T-20-BR, T-20-derived peptide with amino acid changes present in HR2 region of brain-derived env clones] | – | inhibition of pseudotype infection [2]: very similar inhibition |
| WQEWEQKITALLEQAQIQQEKNEYELQKLDKWASLWEWF (also called parental T-1249; HR2-derived peptide; source: synthetic peptide, custom synthesized (BioSynthesis, Inc.)) [T-1249] | binds | – |
| WQEWEQKITALLEQAQIQQEMNEQELQKLDTWASLWEWF (T-1249 with three amino acid changes (printed in bold) that are present in the HR2 region of the H0002GH brain-derived env clones; also called modified T-1249-BR; HR2-derived peptide; source: synthetic peptide, custom synthesized (BioSynthesis, Inc.)) [T-1249-BR] | binds | – |
